The values that follow come from US20240041042A1, “1-(PYRIDYL)-5-AZINYLPYRAZOLE DERIVATIVES, AND THEIR USE FOR CONTROL OF UNDESIRED PLANT GROWTH” (Bayer Aktiengesellschaft, priority 2020, published 2024).

Holding throughout (assay type): in vivo
For assay [1], the system named is Alopecurus myosuroides (ALOMY). Put plainly: Pre-emergence herbicidal action against ALOMY. The conditions noted are these: scored visually after about 3 weeks, 100% = plants have died. Put shortly: (§1)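 Herbicide applied to soil before seedling emergence, at 600 l/ha spray volume with 0.5% additive and rates up to 320 g/ha. Evaluation: visual percentage effect, about 3 weeks later, greenhouse-grown pots compared with untreated ones.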

In assay [2] the test system is Matricaria inodora (MATIN). The assay is described as follows: Pre-emergence herbicidal action against MATIN. In a few lines: as §1
In assay [3] the test system is Amaranthus retroflexus (AMARE). The assay is described as follows: Pre-emergence herbicidal action against AMARE. As to conditions: visual scoring after about 3 weeks vs untreated controls. In a few lines: as §1
The subject of assay [4] is Echinochloa crus-galli (ECHCG). The assay is described as follows: Pre-emergence herbicidal action against ECHCG. Put shortly:
as §1

Assay [5] relates to Echinochloa crus-galli (ECHCG). Put plainly: Post-emergence herbicidal action against ECHCG. In a few lines: (§2)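 Rates were 320 g/ha or below, applied as aqueous WP/EC spray with 0.5% additive (600 l/ha) onto one-leaf-stage plants. About 3 weeks later in the greenhouse, damage was scored visually against untreated plants on a 0–100% scale, where 100% means plants died.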
Assay [6] has as its system Abutilon theophrasti (ABUTH). Put plainly: Post-emergence herbicidal action against ABUTH. The conditions noted are these: visual rating about 3 weeks after treatment vs untreated controls (100% = plants have died, 0% = like control plants). In a few lines:
as §2

The test system of assay [7] is Alopecurus myosuroides (ALOMY). The assay is described as follows: Post-emergence herbicidal action against ALOMY. The conditions noted are these: visual rating about 3 weeks after treatment vs untreated controls (100% = plants have died, 0% = like control plants). Put shortly: as §2
The test system of assay [8] is Polygonum convolvulus (POLCO). Put plainly: Post-emergence herbicidal action against POLCO. Put shortly: as §2
Assay [9] deals with Polygonum convolvulus (POLCO). Put plainly: Pre-emergence herbicidal action against POLCO. Put shortly: as §1
The subject of another assay is Lolium rigidum (LOLRI). Put plainly: Post-emergence herbicidal action against LOLRI. In a few lines:
as §2

Turning to `COCCOC(=O)COc1nn(-c2ncccc2C)c(-c2cncc(F)c2)c1Br` [Example I-212], the “Pre-emergence action against ALOMY” value in assay [1] (80 g/ha) and in assay [1] (320 g/ha) was 100% throughout. The “Pre-emergence action against MATIN in %” value is reported as 80% in assay [2] (dosage 80 g/ha) and 90% in assay [2] (dosage 320 g/ha). Also, the “Pre-emergence action against AMARE in %” value turned out to be 90% in assay [3] (80 g/ha) and 100% in [3] (320 g/ha). For the same molecule, the “Pre-emergence action against ECHCG in %” value in assay [4] (dosage 80 g/ha) and in assay [4] (dosage 320 g/ha) was 100% throughout. In addition, the “Post-emergence action against ECHCG in %” value in assay [5] (dosage 80 g/ha) and in [5] (dosage 320 g/ha) was 90% throughout. Moreover, the “Post-emergence action against ABUTH in %” value in assay [6] (80 g/ha) and in assay [6] (320 g/ha) was 80% throughout. The “Post-emergence action against ALOMY in %” value in [7] (80 g/ha) and in assay [7] (320 g/ha) was 90% each time. Moreover, the “Post-emergence action against POLCO in %” value was 80% in [8] (dosage 80 g/ha) and 90% in [8] (dosage 320 g/ha). Besides, the “Pre-emergence action against POLCO in %” value in [9] (dosage 80 g/ha) and in assay [9] (dosage 320 g/ha) was 90% in each case. Moreover, in the assay on Lolium rigidum (LOLRI) (dosage 320 g/ha), the “Post-emergence action against LOLRI in %” value is reported as 80%.
For the molecule `COC(=O)CNC(=O)[C@@H](C)Oc1nn(-c2ccccn2)c(-c2cncc(F)c2)c1Br` [Example I-187], the “Pre-emergence action against ALOMY” value in [1] (80 g/ha) amounted to 90%; in [1] (320 g/ha), 100%. In addition, the “Pre-emergence action against MATIN in %” value in assay [2] (dosage 80 g/ha) and in assay [2] (dosage 320 g/ha) was 90% each time. Besides, the entries for the “Pre-emergence action against AMARE in %” value in assay [3] (80 g/ha) and in assay [3] (320 g/ha) were 80% and 100%, respectively. Besides, the “Pre-emergence action against ECHCG in %” value in assay [4] (dosage 80 g/ha) is listed as 90%; in assay [4] (dosage 320 g/ha), 100%. The “Post-emergence action against ECHCG in %” value in [5] (dosage 80 g/ha) and in assay [5] (dosage 320 g/ha) was 80% each time. Also, in assay [6] (320 g/ha), the “Post-emergence action against ABUTH in %” value is 80%. For the same molecule, in assay [7] (320 g/ha), the “Post-emergence action against ALOMY in %” value turned out to be 90%. For the same molecule, the “Post-emergence action against POLCO in %” value in [8] (dosage 80 g/ha) and in [8] (dosage 320 g/ha) was 80% throughout. The “Pre-emergence action against POLCO in %” value in assay [9] (dosage 80 g/ha) and in assay [9] (dosage 320 g/ha) was 90% throughout. For the same molecule, the “Post-emergence action against LOLRI in %” value in the assay on Lolium rigidum (LOLRI) (dosage 80 g/ha) and with Lolium rigidum (LOLRI) (dosage 320 g/ha) was 90% in each case.
`COC(=O)[C@@H](C)COC(=O)COc1nn(-c2ccccn2)c(-c2cncc(F)c2)c1Br` [Example I-194]: the “Pre-emergence action against ALOMY” value in [1] (80 g/ha) was 80%; in [1] (320 g/ha), 100%. Moreover, the “Pre-emergence action against MATIN in %” value in assay [2] (dosage 80 g/ha) and in assay [2] (dosage 320 g/ha) was 90% each time. Also, the “Pre-emergence action against AMARE in %” value in assay [3] (80 g/ha) and in assay [3] (320 g/ha) was 100% throughout. The “Pre-emergence action against ECHCG in %” value in assay [4] (dosage 80 g/ha) is on record as 80%; in assay [4] (dosage 320 g/ha), 100%. Also, the “Post-emergence action against ECHCG in %” value in [5] (dosage 80 g/ha) and in assay [5] (dosage 320 g/ha) was 80% in each case. Further, the “Post-emergence action against ABUTH in %” value in assay [6] (320 g/ha) is listed as 80%. Moreover, the “Post-emergence action against ALOMY in %” value in [7] (80 g/ha) and in [7] (320 g/ha) was 90% throughout. Further, the “Pre-emergence action against POLCO in %” value in assay [9] (dosage 80 g/ha) turned out to be 80%; in assay [9] (dosage 320 g/ha), 100%. Besides, the “Post-emergence action against LOLRI in %” value is on record as 80% in the assay on Lolium rigidum (LOLRI) (dosage 80 g/ha) and 90% in the assay with Lolium rigidum (LOLRI) (dosage 320 g/ha).
Regarding `CCOC(=O)COc1nn(-c2nc(F)ccc2F)c(-c2cncc(F)c2)c1C1CC1` [Example I-149], the entries for the “Pre-emergence action against ALOMY” value in assay [1] (80 g/ha) and in assay [1] (320 g/ha) were 90% and 100%, respectively. Further, the “Pre-emergence action against MATIN in %” value in assay [2] (dosage 80 g/ha) and in [2] (dosage 320 g/ha) was 90% throughout. Also, the “Pre-emergence action against AMARE in %” value in assay [3] (80 g/ha) came out at 90%; in assay [3] (320 g/ha), 100%. The “Pre-emergence action against ECHCG in %” value in assay [4] (dosage 80 g/ha) came out at 90%; in [4] (dosage 320 g/ha), 100%. The “Post-emergence action against ECHCG in %” value in [5] (dosage 80 g/ha) and in assay [5] (dosage 320 g/ha) was 80% throughout. Moreover, the “Post-emergence action against ALOMY in %” value in [7] (80 g/ha) worked out at 80%; in assay [7] (320 g/ha), 90%. The “Post-emergence action against POLCO in %” value in assay [8] (dosage 320 g/ha) was determined as 80%. The results for the “Pre-emergence action against POLCO in %” value in [9] (dosage 80 g/ha) and in [9] (dosage 320 g/ha) were 80% and 90%, respectively. The entries for the “Post-emergence action against LOLRI in %” value in the assay with Lolium rigidum (LOLRI) (dosage 80 g/ha) and in the assay on Lolium rigidum (LOLRI) (dosage 320 g/ha) were 80% and 90%, respectively.
Regarding `C[C@@H](Oc1nn(-c2nc(F)ccc2F)c(-c2cncc(F)c2)c1C1CC1)C(=O)O` [Example I-180], the “Pre-emergence action against ALOMY” value in assay [1] (80 g/ha) worked out at 90%; in [1] (320 g/ha) it was 100%. Moreover, the “Pre-emergence action against MATIN in %” value in assay [2] (dosage 80 g/ha) and in assay [2] (dosage 320 g/ha) was 90% throughout. The “Pre-emergence action against AMARE in %” value in assay [3] (80 g/ha) and in assay [3] (320 g/ha) was 100% in each case. Further, the “Pre-emergence action against ECHCG in %” value in assay [4] (dosage 80 g/ha) and in assay [4] (dosage 320 g/ha) was 100% throughout. In addition, the “Post-emergence action against ECHCG in %” value was 80% in assay [5] (dosage 80 g/ha) and 90% in assay [5] (dosage 320 g/ha). In addition, the “Post-emergence action against ALOMY in %” value in [7] (80 g/ha) and in assay [7] (320 g/ha) was 90% each time. Further, the “Post-emergence action against POLCO in %” value in assay [8] (dosage 80 g/ha) is on record as 80%; in assay [8] (dosage 320 g/ha), 90%. In addition, the figures for the “Pre-emergence action against POLCO in %” value in assay [9] (dosage 80 g/ha) and in [9] (dosage 320 g/ha) were 90% and 100%, respectively. Moreover, the “Post-emergence action against LOLRI in %” value in the assay with Lolium rigidum (LOLRI) (dosage 80 g/ha) and with Lolium rigidum (LOLRI) (dosage 320 g/ha) was 90% in each case.
On to `C[C@@H](Oc1nn(-c2ncccc2F)c(-c2ccc(F)nc2)c1Br)C(=O)O` [Example I-18], for which the “Pre-emergence action against ALOMY” value in assay [1] (80 g/ha) and in assay [1] (320 g/ha) was 100% throughout. Moreover, the “Pre-emergence action against MATIN in %” value in assay [2] (dosage 80 g/ha) and in [2] (dosage 320 g/ha) was 100% throughout. Moreover, the “Pre-emergence action against AMARE in %” value in assay [3] (80 g/ha) and in assay [3] (320 g/ha) was 100% throughout. Also, the “Pre-emergence action against ECHCG in %” value in [4] (dosage 80 g/ha) and in assay [4] (dosage 320 g/ha) was 90% in each case. The “Post-emergence action against ECHCG in %” value in assay [5] (dosage 80 g/ha) and in assay [5] (dosage 320 g/ha) was 80% each time. For the same molecule, the “Post-emergence action against ABUTH in %” value in [6] (320 g/ha) was found to be 80%. In addition, the “Post-emergence action against ALOMY in %” value is 90% in assay [7] (80 g/ha) and 100% in [7] (320 g/ha). The “Pre-emergence action against POLCO in %” value in assay [9] (dosage 80 g/ha) and in assay [9] (dosage 320 g/ha) was 100% each time. In the assay on Lolium rigidum (LOLRI) (dosage 320 g/ha), the “Post-emergence action against LOLRI in %” value is on record as 80%.
For the molecule `COC(=O)[C@@H](C)Oc1nn(-c2nc(F)ccc2F)c(-c2cncc(F)c2)c1Br` [Example I-191], the “Pre-emergence action against ALOMY” value in assay [1] (80 g/ha) stood at 80%; in assay [1] (320 g/ha), 90%. Also, the “Pre-emergence action against MATIN in %” value in [2] (dosage 80 g/ha) and in assay [2] (dosage 320 g/ha) was 90% in each case. Besides, the “Pre-emergence action against AMARE in %” value in [3] (80 g/ha) is listed as 90%; in [3] (320 g/ha), 100%. Further, the “Pre-emergence action against ECHCG in %” value in assay [4] (dosage 80 g/ha) was found to be 90%; in [4] (dosage 320 g/ha), 100%. In addition, the “Post-emergence action against ECHCG in %” value in assay [5] (dosage 80 g/ha) and in assay [5] (dosage 320 g/ha) was 80% throughout. For the same molecule, the “Post-emergence action against ABUTH in %” value in assay [6] (80 g/ha) and in assay [6] (320 g/ha) was 80% in each case. For the same molecule, the “Post-emergence action against ALOMY in %” value in [7] (80 g/ha) stood at 80%; in [7] (320 g/ha) it was 90%. The “Pre-emergence action against POLCO in %” value is 80% in assay [9] (dosage 80 g/ha) and 90% in assay [9] (dosage 320 g/ha). Moreover, the “Post-emergence action against LOLRI in %” value in the assay on Lolium rigidum (LOLRI) (dosage 80 g/ha) and in the assay with Lolium rigidum (LOLRI) (dosage 320 g/ha) was 90% in each case.
